Data reported in patent US6544989B2, “Benzazoles: benzoxazole, benzthiazole and benzimidazole derivatives” (Syngenta Limited, priority 1998, dated 2003).
Values joined by “and” are separate entries in the source; they are usually repeats but may differ in a detail not shown here. Identical values can stand only once. Like-named read-outs stand apart in the source and are kept apart here. Marks after values point to notes of the source that are not given here.

What was measured:
[1] = system: Plasmopara viticola; experiment: Fungicidal test, Plasmopara viticola (PLASVI) on vines, PRCO; assay type: in vivo
[2] = system: Phytophthora infestans lycopersici; assay type: in vivo
[3] = system: Botrytis cinerea; experiment: Fungicidal test, Botrytis cinerea (BOTRCI) on tomatoes, PRCO; assay type: in vivo; settings: METHOD 2 (unbanded)
[4] = system: Venturia inaequalis; experiment: Fungicidal test, Venturia inaequalis (VENTIN) on apples, PRCO; assay type: in vivo; settings: METHOD 2 (unbanded)
[5] = system: Erysiphe graminis f.sp. tritici; experiment: Fungicidal test, Erysiphe graminis f.sp. tritici (ERYSGT) on wheat, PRCO; assay type: in vivo; settings: for ERYSGT 6 hr Prot/Foir PRCO: METHOD 1 (values marked *); for ERYSGT 1 d Prot/Foir PRCO: METHOD 2 (unbanded)
[6] = system: Septoria nodorum; experiment: Fungicidal test, Septoria nodorum (LEPTNO) on wheat, PRCO; assay type: in vivo; settings: METHOD 2 (unbanded)
[7] = system: Puccinia recondita; experiment: Fungicidal test, Puccinia recondita (PUCCRT) on wheat, PRCO; assay type: in vivo
[8] = system: Pyricularia oryzae; assay type: in vivo; settings: METHOD 2 (unbanded)
[9] = system: Musca domestica; settings: 500 ppm by weight; knockdown assessed 15 minutes after treatment
Description: The activities of individual compounds of formula (I) were determined using a variety of pests. With the exception of nematodes, the pests were treated with a liquid composition containing 500 parts per million (ppm) by weight of a compound unless otherwise stated. Each composition was made by dissolving the compound in an acetone and ethanol (50:50 by volume) mixture and diluting the solution with water containing 0.05% by volume of a wetting agent, SYNPERONIC NP8, until the liquid composition contained the required concentration of the compound.
The test procedure adopted with regard to each pest, except nematodes, was essentially the same and composed supporting a number of the pests on a medium which was usually a substrate, a host plant or a foodstuff on which the pests feed, and treating either or both the medium and the pests with a composition. Pest mortality was assessed usually between three and five days after treatment Knockdown of housefly (Musca domestica) was assessed 15 minutes after treatment

[10] = system: Meloidogyne incognita; experiment: Nematode test, J2 infective juveniles of Meloidogyne incognita, mortality; settings: 12.5 ppm; J2 infective juveniles suspended in solution; mortality after three days
[11] = system: Uncinula necator; experiment: Fungicidal test, Uncinula necator (UNCINE) on vines, PRCO; assay type: in vivo; settings: METHOD 2 (unbanded)
[12] = system: Rhizoctonia solani; experiment: Fungicidal test, Rhizoctonia solani (RHIZSO) on rice, PRCO; assay type: in vivo; settings: METHOD 2 (unbanded)
[13] = system: Plasmopara viticola; experiment: Synergy test of two-compound mixtures, Plasmopara viticola (PLASVI) on vines, observed and expected PRCO; assay type: in vivo; settings: Disease on untreated: 95%
[14] = system: Septoria nodorum; experiment: Synergy test of two-compound mixtures, Septoria nodorum (LEPTNO) on wheat, observed and expected PRCO; assay type: in vivo
[15] = system: Rhizoctonia solani; experiment: Synergy test of two-compound mixtures, Rhizoctonia solani (RHIZSO) on turf, observed and expected PRCO; assay type: in vivo; settings: assessed 5 days after treatment

## Cc1nc2cc(CC(=O)Nc3snc(C)c3Cl)ccc2o1 [2(A3)]
[1]; METHOD 1 (values marked *)
  PLASVI 1 d Prot/Foir PRCO: 0*
[2]; METHOD 1 (values marked *)
  PHYTIN 1 d Prot/Foir PRCO: 100*
[3]
  BOTRCI 1 d Prot/Foir PRCO: 0
[4]
  VENTIN 1 d Prot/Foir PRCO: 97
[5]
  ERYSGT 6 hr Prot/Foir PRCO: 100*
[6]
  LEPTNO 1 d Prot/Foir PRCO: 21
[7]; METHOD 1 (values marked *)
  PUCCRT 1 d Prot/Foir PRCO: 100*
[8]
  PYRIOR 1 d Prot/Foir PRCO: 47 and 92
[9]
  MUSCDO AC = Musca domestica (knockdown), score: 0 (0 indicates less than 40% mortality)
[10]
  MELGIN = Meloidogyne incognita, grading of mortality (score): 5 (5 indicates 40-79% mortality)

## CCCc1nc2cc(CC(=O)Nc3snc(C)c3Cl)ccc2o1 [4(A3)]
[1]; METHOD 2 (unbanded)
  PLASVI 1 d Prot/Foir PRCO: 34
[2]; METHOD 1 (values marked *)
  PHYTIN 1 d Prot/Foir PRCO: 100*
[3]
  BOTRCI 1 d Prot/Foir PRCO: 49
[5]
  ERYSGT 6 hr Prot/Foir PRCO: 100*
[6]
  LEPTNO 1 d Prot/Foir PRCO: 50
[7]; METHOD 1 (values marked *)
  PUCCRT 1 d Prot/Foir PRCO: 100*
[8]
  PYRIOR 1 d Prot/Foir PRCO: 90 and 81
[9]
  MUSCDO AC = Musca domestica (knockdown), score: 9 (9 indicates 80-100% mortality)
[10]
  MELGIN = Meloidogyne incognita, grading of mortality (score): 9 (9 indicates 80-100% mortality)

## Cc1nsc(NC(=O)Cc2ccc3oc(C(C)(C)C)nc3c2)c1Cl [9(A3)]
[1]; METHOD 1 (values marked *)
  PLASVI 1 d Prot/Foir PRCO: 100*
[11]
  UNCINE 1 d Prot/Foir PRCO: 100
[2]; METHOD 2 (unbanded)
  PHYTIN 1 d Prot/Foir PRCO: 100
[3]
  BOTRCI 1 d Prot/Foir PRCO: 3
[4]
  VENTIN 1 d Prot/Foir PRCO: 33
[5]
  ERYSGT 6 hr Prot/Foir PRCO: 100*
[6]
  LEPTNO 1 d Prot/Foir PRCO: 55
[7]; METHOD 2 (unbanded)
  PUCCRT 1 d Prot/Foir PRCO: 100
[8]
  PYRIOR 1 d Prot/Foir PRCO: 100
[12]
  RHIZSO 1 d Prot/Foir PRCO: 29
[9]
  MUSCDO AC = Musca domestica (knockdown), score: 9 (9 indicates 80-100% mortality)
[10]
  MELGIN = Meloidogyne incognita, grading of mortality (score): 0 (0 indicates less than 40% mortality)

## Cc1nsc(NC(=O)Cc2ccc3oc(CCc4ccccc4)nc3c2)c1Cl [247(A3)]
[1]; METHOD 2 (unbanded)
  PLASVI 1 d Prot/Foir PRCO: 62
[11]
  UNCINE 1 d Prot/Foir PRCO: 95
[2]; METHOD 2 (unbanded)
  PHYTIN 1 d Prot/Foir PRCO: 97
[4]
  VENTIN 1 d Prot/Foir PRCO: −11
[5]
  ERYSGT 1 d Prot/Foir PRCO: 61
[6]
  LEPTNO 1 d Prot/Foir PRCO: 13
[7]; METHOD 2 (unbanded)
  PUCCRT 1 d Prot/Foir PRCO: 95
[8]
  PYRIOR 1 d Prot/Foir PRCO: 85
[12]
  RHIZSO 1 d Prot/Foir PRCO: 0
[9]
  MUSCDO AC = Musca domestica (knockdown), score: 0 (0 indicates less than 40% mortality)
[10]
  MELGIN = Meloidogyne incognita, grading of mortality (score): 0 (0 indicates less than 40% mortality)

## Cc1nsc(NC(=O)Cc2ccc3oc(-c4cc(Cl)cc(Cl)c4)nc3c2)c1Cl [261(A3)]
[1]; METHOD 2 (unbanded)
  PLASVI 1 d Prot/Foir PRCO: 25
[11]
  UNCINE 1 d Prot/Foir PRCO: 17
[2]; METHOD 2 (unbanded)
  PHYTIN 1 d Prot/Foir PRCO: 0
[4]
  VENTIN 1 d Prot/Foir PRCO: 0
[5]
  ERYSGT 1 d Prot/Foir PRCO: 19
[6]
  LEPTNO 1 d Prot/Foir PRCO: −7
[7]; METHOD 2 (unbanded)
  PUCCRT 1 d Prot/Foir PRCO: 3
[8]
  PYRIOR 1 d Prot/Foir PRCO: 31
[12]
  RHIZSO 1 d Prot/Foir PRCO: 0
[9]
  MUSCDO AC = Musca domestica (knockdown), score: 0 (0 indicates less than 40% mortality)
[10]
  MELGIN = Meloidogyne incognita, grading of mortality (score): 0 (0 indicates less than 40% mortality)

## Cc1nsc(NC(=O)Cc2ccc3oc(CC(C)(C)C)nc3c2)c1Cl [Compound 15(A3)]
[1]; METHOD 2 (unbanded)
  PLASVI 1 d Prot/Foir PRCO: 100
[11]
  UNCINE 1 d Prot/Foir PRCO: 100
[2]; METHOD 1 (values marked *)
  PHYTIN 1 d Prot/Foir PRCO: 100*
[3]
  BOTRCI 1 d Prot/Foir PRCO: 73
[4]
  VENTIN 1 d Prot/Foir PRCO: 100
[5]
  ERYSGT 6 hr Prot/Foir PRCO: 100*
[6]
  LEPTNO 1 d Prot/Foir PRCO: 71
[7]; METHOD 2 (unbanded)
  PUCCRT 1 d Prot/Foir PRCO: 100
[8]
  PYRIOR 1 d Prot/Foir PRCO: 100
[12]
  RHIZSO 1 d Prot/Foir PRCO: 5
[13]; Compound 15(A3) 0.2 mg/l alone
  % disease control Observed: 45%
[14]; Test 1 (Disease on untreated: 52%), Compound 15(A3) 50 mg/l alone
  % disease control Observed: 16%
[14]; Test 1 (Disease on untreated: 52%), Compound 15(A3) 100 mg/l alone
  % disease control Observed: 27%
[14]; Test 2 (Disease on untreated: 64%), Compound 15(A3) 50 mg/l alone
  % disease control Observed: 21%
[14]; Test 2 (Disease on untreated: 64%), Compound 15(A3) 100 mg/l alone
  % disease control Observed: 21%
[15]; Test 1, Disease on untreated 100%, Compound 15(A3) 300 mg/l alone
  % disease control Observed: 2.5%
[15]; Test 2, Disease on untreated 100%, Compound 15(A3) 300 mg/l alone
  % disease control Observed: 6.1%
[9]
  MUSCDO AC = Musca domestica (knockdown), score: 9 (9 indicates 80-100% mortality)
[10]
  MELGIN = Meloidogyne incognita, grading of mortality (score): 0 (0 indicates less than 40% mortality)

## CO/C=C(/C(=O)OC)c1ccccc1Oc1cc(Oc2ccccc2C#N)ncn1 [azoxystrobin, reference compound]
[13]; azoxystrobin 0.2 mg/l alone
  % disease control Observed: 61%
[14]; Test 1 (Disease on untreated: 52%), azoxystrobin 0.1 mg/l alone
  % disease control Observed: 41%
[14]; Test 1 (Disease on untreated: 52%), azoxystrobin 0.25 mg/l alone
  % disease control Observed: 37%
[14]; Test 2 (Disease on untreated: 64%), azoxystrobin 0.1 mg/l alone
  % disease control Observed: 48%
[14]; Test 2 (Disease on untreated: 64%), azoxystrobin 0.25 mg/l alone
  % disease control Observed: 71%
[15]; Test 1, azoxystrobin 0.1 mg/l alone
  % disease control Observed: 38.25%
[15]; Test 1, azoxystrobin 0.3 mg/l alone
  % disease control Observed: 71.25%
[15]; Test 2, azoxystrobin 0.1 mg/l alone
  % disease control Observed: 19.7%

## CSC1=N[C@@](C)(c2ccccc2)C(=O)N1Nc1ccccc1 [fenamidone]
[13]; fenamidone 0.2 mg/l alone
  % disease control Observed: 65%

## O=[N+]([O-])c1cc(C(F)(F)F)c(Cl)c([N+](=O)[O-])c1Nc1ncc(C(F)(F)F)cc1Cl [fluazinam]
[13]; fluazinam 1 mg/l alone
  % disease control Observed: 4%
[15]; Test 1, fluazinam 3 mg/l alone
  % disease control Observed: 15%
[15]; Test 1, fluazinam 10 mg/l alone
  % disease control Observed: 48.75%
[15]; Test 2, fluazinam 10 mg/l alone
  % disease control Observed: 18.4%
